The subject of this experiment is Hela and human epithelial kidney 293 cells. Kind of experiment: Geldanamycin treatment of cells, immunofluorescence staining with anti-α-tubulin, anti-γ-tubulin and anti-Hsp90 antibodies. The note with it: 1 μg/ml geldanamycin. Type of experiment: cell-based. As to the method:
Geldanamycin specifically interferes with the function of Hsp90 by binding to the ATP binding site of Hsp90 (Prodromou et al., 1997, Cell 90:65-75; Stebbins et al., 1997, Cell 89:239-250). Hela and human epithelial kidney 293 cells were treated with 1 μg/ml geldanamycin for times ranging from […] (15 minutes, 30 minutes, 1 hour, 5 hours, 15 hours, 20 hours and 30 hours) and were stained with anti-α-tubulin, anti-γ-tubulin and anti-Hsp90 antibodies. […] However, aberrant mitotic spindles were detected from as early as 1 hour of treatment with geldanamycin. More than 50% of the mitotic figures produced in the presence of the drug after 20 hours of treatment contained aberrant mitotic figures in which the centrosomes, the spindles, and the distribution of chromatin were severely disrupted. […] The spindles of these cells were rather asymmetric, with unequal amounts of microtubules in each hemi-spindle and spindle poles very often detached from the centrosome. The aster microtubules which are organized around the centrosome were also abnormal in number and distribution. […] About 50% of the cells contained misaligned chromosomes. Thus, while the centrosome and the cytoskeleton of interphase cells were insensitive to geldanamycin, mitotic centrosomes cannot be properly formed in the presence of geldanamycin. […] Therefore, notwithstanding the possible contribution of other non-centrosomal functions of Hsp90 to some of these phenotypes, it is clear that the inhibition of the function of Hsp90 results in abnormalities in centrosome structure.

With `COC1=C2C[C@@H](C)C[C@H](OC)[C@H](O)[C@@H](C)/C=C(\C)[C@H](OC(N)=O)[C@@H](OC)/C=C\C=C(/C)C(=O)NC(=CC1=O)C2=O` [geldanamycin], the “cells containing misaligned chromosomes” value is recorded as “About 50%” and the “earliest treatment time at which aberrant mitotic spindles were detected” value was determined as 1 h. Besides, the “mitotic figures that were aberrant (centrosomes, spindles and distribution of chromatin severely disrupted)” value (after 20 hours of treatment) is recorded as “More than 50%”.

Source of the values: US6335157B1, “Method based on localization of Hsp90 to the centrosome” (The European Molecular Biology Laboratory, priority 1999, dated 2002).
